Drawing on US10703757B2, “Compounds and methods for CDK8 modulation and indications therefor” (Plexxikon Inc., priority 2016, dated 2020), this text covers IC50 for 26 molecules.

In test [1] the test system is CDK8 (TCF/LEF luciferase reporter in HCT116 cells). As to the kind of experiment: Cell based TCF/LEF reporter assay (HCT116+TCF/LEF luciferase). Particulars: Homo sapiens, HCT-116, 24 h. The text has this: Determine Inhibitor Activity Against CDK8 in Cell Based TCF/LEF Reporter Assay
The colorectal carcinoma cell line HCT116 was stably transduced with lentivirus encoding the TCF/LEF promoter upstream of a luciferase reporter gene (Qiagen) and single cell clones expressing this construct (referred to as HCT116+TCF/LEF) were isolated. HCT116 express endogenous mutant β-catenin^3, resulting in up-regulation of transcription through the TCF/LEF promoter. Expression of the TCF/LEF reporter construct in HCT116 results in constitutive expression of luciferase. Treatment of the cells with inhibitors of components of the β-catenin signaling pathway (such as CDK8) results in decreased expression of luciferase. The assay is performed as follows. The HCT116+TCF/LEF cell line is seeded in a 96 well plate in 50 μL of culture media at 1×10^4 cells/well and incubated at 37° C. overnight. Serial dilutions of compounds (in total volume of 50 μL culture media) are added to the cells and incubated at 37° C. for 24 hours. 4 wells of DMSO treated cells serve as high controls and cells treated with 10 uM of the reference compound CCT251545 (a known CDK8 inhibitor)^4 serve as low controls. The viability of the cells is assayed by the addition of […] reagent (Promega) followed by 30 minute incubation at 37° C. and quantification of the fluorescent signal (Ex400/Em505). The luciferase expression is then assayed by the addition of 25 μL ONE-Glo reagent (Promega) followed by 10 minute incubation at room temperature and quantification of the luminescence signal. The luminescence signal is normalized to the fluorescence signal to correct for any loss in cell viability over the 24 hour compound incubation period. The percentage inhibition at individual concentrations relative to high and low controls is calculated. The data are analyzed by using nonlinear regression to generate IC50 values.

Test [2] has as its system CDK8 (phosphorylation of STAT1 at serine 727 in A549 cells). As to the kind of experiment: Cell based Phospho-STAT1 assay (IFNγ-stimulated A549 cells, AlphaLISA). Conditions: Homo sapiens, A549, A549 cells, phospho-STAT1 after IFNγ stimulation. A digest of the protocol:
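A549 cells given serial compound dilutions for 1 h at 37 °C, then stimulated with IFNγ at 10 ng/mL final for 30 min. Lysate STAT1 Ser727 phosphorylation measured by AlphaLISA; % inhibition vs stimulated/unstimulated DMSO controls, IC50 by nonlinear regression.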
On the technique in general: Bead proximity is the source of the signal in Alpha formats.

SMILES strings stand for the structures. pIC50: −log10 of the molar value.

On to `CNC(=O)c1ccc2cc(-c3cnc4[nH]ccc4c3C3=CCC(C#N)CC3)ccc2c1` (stereo not shown) [Compound P-0268, 6-(4-(4-cyanocyclohex-1-en-1-yl)-1H-pyrrolo[2,3-b]pyridin-5-yl)-N-methyl-2-naphthamide], for which the pIC50 in test [1] and in test [2] was 7.00 to 10.00 throughout.
With `N#CC1CC=C(c2nccn3ncc(-c4ccc(OCCOC5CCOCC5)cc4)c23)CC1` (stereo not shown) [Compound P-0146, 4-(3-(4-(2-((tetrahydro-2H-pyran-4-yl)oxy)ethoxy)phenyl)pyrazolo[1,5-a]pyrazin-4-yl) cyclohex-3-ene-1-carbonitrile], the pIC50 in test [1] and in test [2] was 7.00 to 10.00 each time.
As for `COc1ccc(-c2cnn3ccnc(C4=CCC(C#N)CC4)c23)cc1F` (stereo not shown) [Compound P-0104, 4-(3-(3-fluoro-4-methoxyphenyl)pyrazolo[1,5-a]pyrazin-4-yl)cyclohex-3-ene-1-carbonitrile], the pIC50 in test [1] and in test [2] was 7.00 to 10.00 in each case.
Consider `N#CC1CC=C(c2nccn3ncc(-c4ccc(-c5cnn(CC(F)F)c5)cc4)c23)CC1` (stereo not shown) [Compound P-0029, 4-(3-(4-(1-(2,2-difluoroethyl)-1H-pyrazol-4-yl)phenyl)pyrazolo[1,5-a]pyrazin-4-yl)cyclohex-3-ene-1-carbonitrile], for which the pIC50 in test [1] and in test [2] was 7.00 to 10.00 throughout.
Take `COCCn1cc(-c2ccc(-c3cnn4cccc(C#CC(C)(C)C(N)=O)c34)cc2)cn1` [Compound P-0469, 4-(3-(4-(1-(2-methoxyethyl)-1H-pyrazol-4-yl)phenyl)pyrazolo[1,5-a]pyridin-4-yl)-2,2-dimethylbut-3-ynamide]: the pIC50 in test [1] and in test [2] was 7.00 to 10.00 in each case.
Turning to `Cn1cc(-c2ccc(-c3cnc4cccc(N5CCC6(CC5)C(=O)Nc5ccccc56)n34)cc2)cn1` [Compound P-0454, 1′-(3-(4-(1-methyl-1H-pyrazol-4-yl)phenyl)imidazo[1,2-a]pyridin-5-yl)spiro[indoline-3,4′-piperidin]-2-one], the negative logarithm of the IC50 (pIC50) in test [1] and in test [2] was 7.00 to 10.00 throughout.
Consider `N#CC1CCN(c2cccn3ncc(-c4ccc(NC(=O)OCc5ccccc5)cc4)c23)CC1` [Compound P-0259, benzyl (4-(4-(4-cyanopiperidin-1-yl)pyrazolo[1,5-a]pyridin-3-yl)phenyl)carbamate], for which the pIC50 in test [1] and in test [2] was 6.00 to 7.00 in each case.
Turning to `N#CC1CC=C(c2cccn3ncc(-c4ccc(Cl)cc4)c23)CC1` (stereo not shown) [Compound P-0188, 4-(3-(4-chlorophenyl)pyrazolo[1,5-a]pyridin-4-yl)cyclohex-3-ene-1-carbonitrile], the pIC50 in test [1] and in test [2] was 7.00 to 10.00 throughout.
Turning to `CC(C)(O)Cn1cc(-c2ccc(-c3cnn4ccnc(C5CCC(C#N)CC5)c34)cn2)cn1` (stereo not shown) [Compound P-0459, (1s,4s)-4-(3-(6-(1-(2-hydroxy-2-methylpropyl)-1H-pyrazol-4-yl)pyridin-3-yl)pyrazolo[1,5-a]pyrazin-4-yl)cyclohexane-1-carbonitrile], the pIC50 in test [1] and in test [2] was 7.00 to 10.00 throughout.
For `COc1ncc(C#Cc2cnc3cccc(C4=CCC(C#N)CC4)n23)cn1` (stereo not shown) [Compound P-0314, 4-(3-((2-methoxypyrimidin-5-yl)ethynyl)imidazo[1,2-a]pyridin-5-yl)cyclohex-3-ene-1-carbonitrile], the pIC50 in test [1] and in test [2] was 7.00 to 10.00 throughout.
Turning to `N#CC1CCC(c2nccn3ncc(-c4ccc(-n5ccnn5)cc4)c23)CC1` (stereo not shown) [Compound P-0211, 4-(3-(4-(1H-1,2,3-triazol-1-yl)phenyl)pyrazolo[1,5-a]pyrazin-4-yl)cyclohexane-1-carbonitrile], the results for the pIC50 in test [1] and in test [2] were 6.00 to 7.00 and 7.00 to 10.00, respectively.
In the case of `Cn1cc(-c2ccc(-c3cnc4[nH]ccc4c3N3CCC4(CCNC4=O)CC3)cc2)cn1` [Compound P-0271, 8-(5-(4-(1-methyl-1H-pyrazol-4-yl)phenyl)-1H-pyrrolo[2,3-b]pyridin-4-yl)-2,8-diazaspiro[4.5]decan-1-one], the pIC50 in test [1] and in test [2] was 6.00 to 7.00 each time.
Turning to `N#CC1CCN(c2cccn3ncc(-c4ccc(OCC(O)CN5CCCCC5)cc4)c23)CC1` (stereo not shown) [Compound P-0263, 1-(3-(4-(2-hydroxy-3-(piperidin-1-yl)propoxy)phenyl)pyrazolo[1,5-a]pyridin-4-yl)piperidine-4-carbonitrile], the pIC50 in test [1] and in test [2] was 7.00 to 10.00 each time.
For `Cn1cc(C#Cc2cnc3cccc(N4CCC5(CCNC5=O)CC4)n23)cn1` [Compound P-0278, 8-(3-((1-methyl-1H-pyrazol-4-yl)ethynyl)imidazo[1,2-a]pyridin-5-yl)-2,8-diazaspiro[4.5]decan-1-one], the pIC50 in test [1] and in test [2] was 6.00 to 7.00 each time.
With `N#CC1CCC(c2cccn3ncc(-c4ccc(-n5ccnn5)cc4)c23)CC1` (mixture of isomers) [Compound P-0217, (1r,4r) and (1s,4s)-4-[3-[4-(triazol-1-yl)phenyl]pyrazolo[1,5-a]pyridin-4-yl]cyclohexanecarbonitrile], the pIC50 in test [1] and in test [2] was 7.00 to 10.00 in each case.
For the molecule `Cn1cc(-c2ccc(-c3cnn4cccc(C#C[C@@](C)(O)c5ccccc5)c34)cc2)cn1` [Compound P-0246, (S)-4-(3-(4-(1-methyl-1H-pyrazol-4-yl)phenyl)pyrazolo[1,5-a]pyridin-4-yl)-2-phenylbut-3-yn-2-ol], the pIC50 – broadly, the negative decadic logarithm of the IC50, by convention in mol/L – in test [1] was 6.00 to 7.00; in test [2], 7.00 to 10.00.
The corresponding values for `CC(C)Cn1cc(-c2ccc(-c3cnn4ccnc(C5=CCC(C#N)CC5)c34)cc2)cn1` (stereo not shown) [Compound P-0035, 4-(3-(4-(1-isobutyl-1H-pyrazol-4-yl)phenyl)pyrazolo[1,5-a]pyrazin-4-yl)cyclohex-3-ene-1-carbonitrile] are 7.00 to 10.00 and 7.00 to 10.00.
With `Cn1cc(-c2ccc(-c3cnn4ccnc(C5CCC(C#N)CC5)c34)cc2)cn1` (stereo not shown) [Compound P-0059, (1s,4s)-4-(3-(4-(1-methyl-1H-pyrazol-4-yl)phenyl)pyrazolo[1,5-a]pyrazin-4-yl)cyclohexane-1-carbonitrile], the pIC50 in test [1] and in test [2] was 7.00 to 10.00 each time.
For the molecule `CC(C)(O)Cn1cc(-c2ccc(-c3cnc4[nH]ccc4c3C#CC(C)(C)C(N)=O)cc2)cn1` [Compound P-0133, 4-[5-[4-[1-(2-hydroxy-2-methyl-propyl)pyrazol-4-yl]phenyl]-1H-pyrrolo[2,3-b]pyridin-4-yl]-2,2-dimethyl-but-3-ynamide], the pIC50 in test [1] and in test [2] was 6.00 to 7.00 in each case.
As for `COc1ccc2cc(-c3cnc4[nH]ccc4c3N3CCC(C#N)CC3)ccc2n1` [Compound P-0221, 1-(5-(2-methoxyquinolin-6-yl)-1H-pyrrolo[2,3-b]pyridin-4-yl)piperidine-4-carbonitrile], the negative-log IC50 (pIC50) in test [1] and in test [2] was 7.00 to 10.00 in each case.
With `N#CC1CC=C(c2cccn3ncc(-c4ccc(-n5ccnn5)cc4)c23)CC1` (stereo not shown) [Compound P-0224, 4-(3-(4-(1H-1,2,3-triazol-1-yl)phenyl)pyrazolo[1,5-a]pyridin-4-yl)cyclohex-3-ene-1-carbonitrile], the pIC50 in test [1] and in test [2] was 7.00 to 10.00 each time.
In the case of `O=C1NCCC12CCN(c1cccn3ncc(-c4ccc(OCCN5CCOCC5)cc4)c13)CC2` [Compound P-0135, 8-(3-(4-(2-morpholino-ethoxy)phenyl)pyrazolo[1,5-a]pyridin-4-yl)-2,8-diazaspiro[4.5]decan-1-one], the pIC50 in test [1] and in test [2] was 6.00 to 7.00 each time.
Turning to `N#CC1CC=C(c2nccn3ncc(-c4ccc5c(cnn5CC(F)(F)F)c4)c23)CC1` (stereo not shown) [Compound P-0063, 4-(3-(1-(2,2,2-trifluoroethyl)-1H-indazol-5-yl)pyrazolo[1,5-a]pyrazin-4-yl)cyclohex-3-ene-1-carbonitrile], the pIC50 in test [1] and in test [2] was 7.00 to 10.00 each time.
As for `Cn1cc(C#Cc2cnc3cccc(N4CCC(C(N)=O)C4)n23)cn1` (stereo not shown) [Compound P-0241, 1-(3-((1-methyl-1H-pyrazol-4-yl)ethynyl)imidazo[1,2-a]pyridin-5-yl)pyrrolidine-3-carboxamide], the pIC50 in test [1] and in test [2] was 6.00 to 7.00 each time.
Turning to `FC(F)n1cc(-c2ccc(-c3cnc4cccc(OC5COC5)n34)cc2)cn1` [Compound P-0284, 3-(4-(1-(difluoromethyl)-1H-pyrazol-4-yl)phenyl)-5-(oxetan-3-yloxy)imidazo[1,2-a]pyridine], the pIC50 in test [1] and in test [2] was 5.00 to 6.00 in each case.
`Cc1ccc2cc(-c3cnc4[nH]ccc4c3N3CCC(C#N)CC3)ccc2n1` [Compound P-0209, 1-(5-(2-methylquinolin-6-yl)-1H-pyrrolo[2,3-b]pyridin-4-yl)piperidine-4-carbonitrile]: the pIC50 in test [1] and in test [2] was 7.00 to 10.00 throughout.
